Experimental data reported in patent US20240124456A1, “AZA-ERGOLINE DERIVATIVE AND PREPARATION METHOD THEREFOR AND APPLICATION THEREOF” (SHANGHAITECH UNIVERSITY, priority 2021, published 2024).

Experiments:
dopamine D2 receptors [1] = biological target: T1, dopamine D2 receptors (Homo sapiens (Human), UniProt P14416); experiment: β-arrestin2 recruitment BRET, dopamine D2 receptor functional activity; format: cell-based; details: for Emax: read-out: β-arrestin2 BRET Emax % ± SEM
Protocol: To examine the downstream f3-arrestin2 signaling pathway mediated by dopamine D2 receptors, 6 cm dish was used for transfection with 500 […] of dopamine D2 receptors fused to seaweed luciferase (D2-Rluc), 500 μg of G protein-coupled receptor kinase 2 (GRK2), 2500 μg of β-arrestin2 fused to green fluorescent protein (GFP2-ARRB2) and 14 μL of transfection reagent PEI. The next day, the overgrown cells were digested and plated a 96-well plate at the amount of cells contained in a 6 cm culture dish with overgrown cells, and 100 μL of culture medium was added to each well. On the third day, the drugs were added for test.
(§1) To examine downstream G-protein signaling pathway mediated by dopamine D2 receptors, on the first day, 6 cm dish was used for transfection with 1μg of dopamine D2 receptors, 1μg of Gαi1 containing C-terminal seaweed luciferase (GGαi1-Rluc), 1 μg of […], 1 μg of Gγ9 containing C-terminal green fluorescent protein (Gγ9-GFP) and 16 μL of PEI. At the same time, in order to examine the downstream f3-arrestin2 signaling pathway mediated by dopamine D2 receptors, on the first day, 6 cm dish was used for transfection with 500 μg of dopamine D2 receptors containing C-terminal seaweed luciferase (D2-Rluc), 500 μg of G protein-coupled receptor kinase 2 (GRK2), 2500 μg of […] containing N-terminal green fluorescent protein (GFP2-ARRB2) and 14 μL of PEI. The next day, the overgrown cells were digested and plated a 96-well plate at the amount of cells contained in a 6 cm culture dish with overgrown cells, and 100 μL of culture medium was added to each well. On the third day, the drugs were added for test. The 96-well plate was taken out from the cell culture room to remove the culture medium, 40 μL of the substrate coelenterazine 400a (final concentration of 5 μM) was added to each well, and then 20 μL of different drugs were added in turn from left to right to ensure that the final concentration of the drugs decreased gradually from bottom to top, and each treatment was repeated twice. Finally, the prepared samples were loaded on machine for test. The machine reading value reflected the intracellular β-arrestin2 on the membrane and the dissociation of G protein trimer. The former indicated the degree of activation of the β-arrestin2 signaling pathway downstream of the dopamine D2 receptors, and the latter indicated the degree of activation of the G protein signaling pathway downstream of the dopamine D2 receptors.

dopamine D2 receptors [2] = biological target: T1, dopamine D2 receptors; experiment: G protein Gαi1-γ9 dissociation BRET, dopamine D2 receptor functional activity; format: cell-based; details: for Emax: read-out: Gai1 BRET Emax % ± SEM
Protocol: To examine downstream G protein signaling mediated by dopamine D2 receptors, 6 cm dish was used for transfection with 1μg of dopamine D2 receptors, 1μg of Gαi1 fused to seaweed luciferase (Gαi1-Rluc), 1 μg of Gβ3, 1 μg of Gγ9 fused to green fluorescent protein (Gγ9-GFP) and 16 μL of transfection reagent PEI. […] On the third day, the drugs were added for test.
as §1

dopamine D2 receptors [3] = biological target: T1, dopamine D2 receptors; experiment: Radioligand competition binding, affinity for dopamine D2 receptors ([3H]-Methylspiperone); details: [3H]-Methylspiperone (0.3-0.5 nM), HEK-293T membranes; for Ki: I-1 to 19 n=3, I-20 to 27 single determination; for Affinity pKi ± SEM: n=3
Protocol: A 10 cm diameter dish was used for transfection with 10 ng of the dopamine D2 receptors and 40 μL of PEI. After 48 hours, the 10 cm dish was taken out from the cell culture room and the cultured cells had expressed the dopamine D2 receptors. A vacuum pump was used to suck off the culture medium, 3 mL of lysis buffer (50 mM Tris hydrochloric acid buffer, pH 7.4) was added to each well, and the cells were placed in a 4° C. freezer for 10 minutes. After the cells were detached, the cells were transferred to a 15 mL centrifuge tube and centrifuged at 1500 rpm for 5 minutes at 4° C., and the supernatant was discarded. The cell pellet was transferred to a tissue homogenizer, and 3 mL of lysis buffer was added and fully ground until the cells were broken. Then, cell suspension was equally divided into several EP tubes, centrifuged at 4° C. and 12000 rpm for 5 min, and the supernatant was discarded. The precipitate was the cell membrane component containing the dopamine D2 receptors and stored at −80° C.
First, a standard binding buffer (50 mM HEPES, 50 mM NaCl, 5 mM MgCl2, 0.5 mM EDTA, pH 7.4) was added to the cell membrane component containing the dopamine D2 receptors, and the cell membrane was disrupted and resuspended with an electric tissue homogenizer. 30 μL of membrane protein suspension was added to each well of a 96-well plate. Then, 30 μL of different drugs were added to the 96-well plate from left to right to ensure that the final drug concentrations were 10^−5 M, 10^−6 M, 10^−7 M, 10^−8 M, 10^−9 M and 0 M, with two replicates per treatment. Next, 30 μL [^3H]-N-Methylspiperone was added to each well of the 96-well plate, and the plate was incubated for 2 hours at room temperature in the dark. The unbound isotopes were removed by Whatman GF/C filter membrane and vacuum pump, and the isotopes bound to the receptors were detected by MicroBeta isotope liquid scintillation counter.
The affinity of the compounds of the present invention for the dopamine D2 receptors was determined by the method of radioligand competition experiment. In the first step, a cell membrane component containing specific dopamine D2 receptors was prepared. A10 cm dish was used for transfection with 10 ng of the dopamine D2 receptors and 40 μL of PEI. After 48 hours, the 10 cm dish was taken out from the cell culture room and the cultured cells had expressed the dopamine D2 receptors. A vacuum pump was used to suck off the culture medium, 3 mL of lysis buffer was added to each well, and the cells were placed in a 4° C. freezer for 10 minutes. After the cells were detached, the cells were transferred to a 15 mL centrifuge tube and centrifuged at 1500 rpm for 5 minutes at 4° C., and the supernatant was discarded. The cell pellet was transferred to a tissue homogenizer, and 3 mL of lysis buffer was added and fully ground until the cells were broken. Then, cell suspension was equally divided into several EP tubes, centrifuged at 4° C. and 12000 rpm for 5 min, and the supernatant was discarded. The precipitate was the cell membrane component containing the dopamine D2 receptors. […] First, a standard binding buffer was added to the cell membrane component containing the dopamine D2 receptors, and the cell membrane was disrupted and resuspended with an electric tissue homogenizer. 30 μL of membrane protein suspension was added to each well of a 96-well plate. Then, 30 μL of different drugs were added to the 96-well plate from left to right to ensure that the final drug concentrations were 10^−5 M, 10^−6 M, 10^−7 M, 10^−8 M, 10^−9 M and 0 M, with two replicates per treatment. Next, 30 μL [^3H]-Methylspiperone was added to each well of the 96-well plate. The plate was incubated for 2 hours at room temperature in the dark. Detection. The machine reading value reflected the amount of [^3H]-Methylspiperone bound on the membrane, and after further data processing, the affinity Ki value of different compounds for dopamine D2 receptors was obtained.

[4] = n=3, read-out: β-arrestin2 BRET pEC50 ± SEM (converted)
[5] = relative to the endogenous ligand dopamine
[6] = HEK-293T, I-1 to 19 n=3, I-20 to 27 single determination, read-out: Gai1 BRET EC50
[7] = n=3, read-out: Gai1 BRET pEC50 ± SEM (converted)
[8] = HEK-293T, I-1 to 19 n=3, I-20 to 27 single determination, read-out: β-arrestin2 BRET EC50
[9] = antagonistic activity, single determination, read-out: Gai1 BRET EC50 (antagonistic activity)

T1 sequence (P14416 whole entry, the tested form may be a part): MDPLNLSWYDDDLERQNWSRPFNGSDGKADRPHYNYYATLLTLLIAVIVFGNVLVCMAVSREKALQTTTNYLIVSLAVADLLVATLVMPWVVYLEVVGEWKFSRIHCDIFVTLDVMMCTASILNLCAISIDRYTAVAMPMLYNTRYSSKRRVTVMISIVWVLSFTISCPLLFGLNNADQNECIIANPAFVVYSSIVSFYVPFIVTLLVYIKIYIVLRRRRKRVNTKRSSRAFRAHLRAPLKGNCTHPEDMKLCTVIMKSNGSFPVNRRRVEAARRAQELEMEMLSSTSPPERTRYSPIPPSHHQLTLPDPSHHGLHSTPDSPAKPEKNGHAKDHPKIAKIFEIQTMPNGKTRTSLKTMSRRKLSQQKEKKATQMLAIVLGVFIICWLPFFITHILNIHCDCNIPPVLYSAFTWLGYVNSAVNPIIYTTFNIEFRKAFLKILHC

Structure (SMILES) | Emax (dopamine D2 receptors [1]; [5]) [%] | EC50 (dopamine D2 receptors [2]; [6]) [nM] | Emax (dopamine D2 receptors [2]; [5]) [%] | Ki (dopamine D2 receptors [3]) [nM] | EC50 (dopamine D2 receptors [1]; [8]) [nM] | other results
O=c1ccc2ccc(OCCCCN3CCN4c5cccc6[nH]cc(c56)CC4C3)cc2[nH]1 (single isomer, unassigned; (+)) [(+)-I-2] | 89 | 1 | 95 | 8.87 |  | EC50 (dopamine D2 receptors [1]; [4]): 15.8 nM; EC50 (dopamine D2 receptors [2]; [7]): 0.851 nM
O=c1ccc2ccc(OCCCCN3CCN4c5cccc6[nH]cc(c56)CC4C3)cc2[nH]1 (single isomer, unassigned; (-)) [(−)-I-2] |  | 3 |  | 1.75 |  | EC50 (dopamine D2 receptors [1]; [4]): 18.2 nM; β-arrestin2 BRET Emax % ± SEM (dopamine D2 receptors [1]; [5]): 76 ± 2%; EC50 (dopamine D2 receptors [2]; [7]): 2.75 nM; Gai1 BRET Emax % ± SEM (dopamine D2 receptors [2]; [5]): 91 ± 3%
c1cc2c3c(c[nH]c3c1)CC1CN(CCCCOc3ccc4scnc4c3)CCN21 (stereo not drawn) [Compound I-3] | 93 | 43.6 | 92 |  | 64.6 | 
Cc1nc2cc(OCCCCN3CCN4c5cccc6[nH]cc(c56)CC4C3)ccc2o1 (stereo not drawn) [Compound I-4, 5-(4-(4,6,6a,7,9,10-hexahydro-8H-pyrazino[1,2-a]pyrrolo[4,3,2-de]quinolin-8-yl)butoxy)-2-methylbenzo[d]oxazole] | 66 | 6.68 | 80 | 30.3 | 71 | Affinity pKi ± SEM (dopamine D2 receptors [3]): (7.52 ± 0.08)
Cc1noc2cc(OCCCCN3CCN4c5cccc6[nH]cc(c56)CC4C3)ccc12 (stereo not drawn) [Compound I-5, 6-(4-(4,6,6a,7,9,10-hexahydro-8H-pyrazino[1,2-a]pyrrolo[4,3,2-de]quinolin-8-yl)butoxy)-3-methylbenzo[d] is oxazole] | 61 | 7.44 | 83 | 37.1 | 54 | Affinity pKi ± SEM (dopamine D2 receptors [3]): (7.43 ± 0.09)
c1cc2c3c(c[nH]c3c1)CC1CN(CCCCOc3ccc4c(c3)OCC4)CCN21 (stereo not drawn) [Compound I-6, 8-(4-((2,3-dihydrobenzofuran-6-yl)oxy)butyl)-6,6a,7,8,9,10-hexahydro-4H-pyrazino[1,2-a]pyrrolo[4,3,2-de]quinoline] | 61 | 6.64 | 86 | 51.6 | 61.6 | Affinity pKi ± SEM (dopamine D2 receptors [3]): (7.29 ± 0.10)
c1cc2c3c(c[nH]c3c1)CC1CN(CCCOc3ccc4c(c3)OCO4)CCN21 (stereo not drawn) [Compound I-9, 8-(3-(benzo[d][1,3]dioxo1-5-yloxy)propyl)-6,6a,7,8,9,10-hexahydro-4H-pyrazino[1,2-a]pyrrolo[4,3,2-de]quinoline] | 96 | 166 | 92 |  | 148 | 
O=C(N[C@H]1CC[C@H](CCN2CCN3c4cccc5[nH]cc(c45)CC3C2)CC1)N1CCCC1 (stereo partly drawn) [Compound I-11, N-(4-(2-(4,6,6a,7,9,10-hexahydro-8H-pyrazino[1,2-a]pyrrolo[4,3,2-de]quinolin-8-yl)ethyl)trans-cyclohexyl)tetrahydropyrrole-l-carboxamide] | 87 | 9.33 | 91 |  | 11.2 | 
CN(C)C(=O)N[C@H]1CC[C@H](CN2CCN3c4cccc5[nH]cc(c45)CC3C2)CC1 (stereo partly drawn) [Compound I-16] | 90 | 58.9 | 84 |  | 40.7 | 
O=C1CCc2ccc(OC/C=C/CN3CCN4c5cccc6[nH]cc(c56)CC4C3)cc2N1 (stereo not drawn) [Compound I-20] | 88 | 10.2 | 74 |  | 98.2 | 
O=c1ccc2ccc(OC/C=C/CN3CCN4c5cccc6[nH]cc(c56)CC4C3)cc2[nH]1 (stereo not drawn) [Compound I-21] | 90 | 7.71 | 77 |  | 61.9 | 
O=C(CCCN1CCN2c3cccc4[nH]cc(c34)CC2C1)c1ccc(F)cc1 (stereo not drawn) [Compound I-24, 1-(4-fluorobenzene)-4-(4,6,6a,7,9,10-hexahydro-8H-pyrazino[1,2-a]pyrrolo[4,3,2-de]quinolin-8-yl)-1-butanone] | 26 | 11.4 | 38 |  | 10.4 | 
OC(CCCN1CCN2c3cccc4[nH]cc(c34)CC2C1)c1ccc(F)cc1 (stereo not drawn) [Compound I-25, 1-(4-fluorobenzene)-4-(4,6,6a,7,9,10-hexahydro-8H-pyrazino[1,2-a]pyrrolo[4,3,2-de]quinolin-8-yl)-1-butanol] | 30 | 7.48 | 29 |  | 9.6 | 
Cn1cc2c3c(cccc31)N1CCN(CCCC(=O)c3ccc(F)cc3)CC1C2 (stereo not drawn) [Compound I-26, 1-(4-fluorobenzene)-4-(4-methyl-4,6,6a,7,9,10-hexahydro-8H-pyrazino[1,2-a]pyrrolo[4,3,2-de]quinolin-8-yl)-1-butanone] |  |  |  |  |  | β-arrestin2 BRET EC50 (dopamine D2 receptors [1]; HEK-293T, I-1 to 19 n=3, I-20 to 27 single determination): Inactive; EC50 (dopamine D2 receptors [2]; [9]): 7620 nM
Cn1cc2c3c(cccc31)N1CCN(CCCC(O)c3ccc(F)cc3)CC1C2 (stereo not drawn) [Compound I-27, 1-(4-fluorobenzene)-4-(4-methyl-4,6,6a,7,9,10-hexahydro-8H-pyrazino[1,2-a]pyrrolo[4,3,2-de]quinolin-8-yl)-1-butanol] |  |  |  |  |  | EC50 (dopamine D2 receptors [1]; antagonistic activity, single determination, read-out: β-arrestin2 BRET EC50 (antagonistic activity)): 1540 nM; EC50 (dopamine D2 receptors [2]; [9]): 1200 nM
